“Also recorded” adds a separate entry of the source.
Legend:
[1] = test system: C57/BL-6 bone marrow derived osteoclasts; assay: Primary osteoclast number and resorption on dentin discs; assay type: cell-based, mouse; conditions: 1 μM, N=8
Description: Osteoclasts were isolated from the bone marrow of the long bones of 8-week old C57/BL-6 mice and cultured for 24 hours in osteoclast basal media (MEM supplemented with 10% FBS, 2 mM L-glutamine, 1% Ab/Am). After 24 hours, 1×10^6 osteoclasts were seeded onto dentin discs in osteoclast differentiation media (basal media supplemented with 100 nM PGE2, 200 ng/ml MCSF, 3 ng/ml RANKL pH 7.3) for 24 hours before addition of 1 μM BI1347 or DMSO for 3 days (N=8). On day 5 of culture, osteoclast resorption was initiated by addition of 10 mM hydrochloric acid to acidify differentiation media to pH 7.0 for 2 days. On day 7, discs were fixed in 2.5% glutaraldehyde, tartrate resistant acid phosphatase (TRAP) stained and imaged using Axiovert Microscope at ×10 magnification to observe osteoclast resorption.
Pre-osteoclast and osteoclast numbers were counted using the automated counting method developed by Davies et al. 2021 (currently under review) using Ilastik software in Image J (Fiji, US). Resorption area on each disc was manually counted and analysed using Image J software.

[2] = test system: THP-1 derived macrophages; assay: LPS stimulated THP-1 derived macrophages: gene expression; assay type: cell-based, human; conditions: 1 μM, 1 h pretreatment + 24 h LPS
Description: THP-1 monocytes were differentiated into macrophages via treatment with 50 ng/ml phorbol 12-myristate 13-acetate (PMA) in THP-1 growth media (RPMI-1640, 100 μg/ml Primocin, 10% FBS, 0.05 mM β-mercaptoethanol) for 48 hours. Macrophages were then washed twice to remove PMA containing media before a 1-hour pretreatment with 1 μM BI1347 or 100 nM MSC2530818. Inflammatory stimulation was then initiated via the addition of lug/ml lipopolysaccharide (LPS) for 24 hours in the presence of 1 μM BI1347 or 100 nM MSC2530818. Gene expression analysis was subsequently carried out as previously outlined. For MSC2530818 treated/LPS stimulated cells, media supernatant was used for IL-1β cytokine analysis quantification via ELISA (PeproTech, ABTS Human IL-1β development ELISA) as per manufacturer instructions.

[3] = test system: hypertrophic ATDC5 micromasses; assay: Metabolic analysis (MitoStress Test, Seahorse XF) of hypertrophic ATDC5 micromasses; assay type: cell-based, mouse; conditions: 1 μM
Description: This higher dependency on glycolysis for energy production is linked to enhanced catabolic processes, therefore reducing glycolysis has been proposed as a therapeutic approach for OA (Tan et al. (2022) “A new strategy for osteoarthritis therapy: Inhibition of glycolysis”. Front Pharmacol. 2022 Nov. 10; 13:1057229. doi: 10.3389/fphar.2022.1057229.). To assess energy metabolism of hypertrophic ATDC5 cells in the presence of CDK8i, 2 μl micromasses were seeded onto a Seahorse XF HS Miniplate (Agilent). Micromasses were differentiated in the presence of MSC2530818 as previously described for 1 week before switching to mineralisation media containing MSC2530818 for 24 hours. The MitoStress Test (Agilent) was carried out on hypertrophic micromasses using 1.5 μM oligomycin, 0.5 μM […] and 0.25 μM FCCP which measured real-time extracellular acidification and oxygen consumption rate. Analysis via the Agilent Seahorse Analytics platform basal oxygen consumption rate and glycolysis measurements.

[4] = test system: primary equine articular chondrocytes; assay: Primary equine articular chondrocytes in chondrogenesis and IL1β OA disease model: gene expression; assay type: cell-based; conditions: 100 nM, N=2
Description: (§1) Articular cartilage was isolated, placed into a petri dish containing phosphate buffer saline (PBS) supplemented with 2% Ab/Am (PBS-Ab/Am) and transferred to a laminar flow hood for processing. Cartilage shavings were minced using a sterile scalpel to approximately 1 mm^3 and washed in fresh PBS-Ab/Am by centrifugation at 500×g for 10 minutes. Supernatant was removed and the cartilage pellet resuspended in 5 ml TrypLE™ (Gibco) before incubation at 37° C. for 10 minutes with gentle agitation. Dissociated cartilage fragments were pelleted and washed to remove excess TrypLE and resuspended in DMEM-complete media (DMEM/F12 (Gibco), 1% Ab/Am, 10% FBS) supplemented with 2 mg/ml Collagenase Type II and incubated overnight at 37° C. with gentle agitation. The cartilage digest was pelleted, washed and subsequently resuspended in DMEM-complete. Released cells were counted using a haematocytometer and seeded at 10,000 cells per cm^2. The cultures were incubated at 37° C., 5% CO2 in a humidified incubator for 2 days before refreshing DMEM-complete every 2 days until confluency. For differentiation experiments, primary chondrocytes were differentiated in DMEM/F12 containing 2% FBS, 1% Ab/Am, 1× Insulin-Transferrin-Selenium premix, 10 ng/ml TGFβ3 (primary chondrocyte differentiation media).
(§2) Additional experiments were carried out on primary chondrocytes (equine, canine and human) and ihMSC (TERT immortalised human mesenchymal stromal cell line) to investigate whether CDK8i protects from IL-1β induced degradation when added throughout the entirety of differentiation/IL-1β treatment. Briefly, ihMSCs were seeded at a density of 5×10^4 cells per 10 μl micromass and differentiated in ihMSC chondrogenic media (1% FBS, 1% Ab/Am, 1× Insulin-Transferrin-Selenium premix, 10 μM Y-27632, 100 nM dexamethasone, 50 μg/ml ascorbic acid, 20 ng/ml TGF-β3 (Peprotech)). Primary chondrocytes were seeded at 2.7×10^5 cells per 10 μl micromass and differentiated in primary chondrocyte differentiation media. All micromasses were differentiated for 12 days in the presence of 100 nM […] or DMSO. Some micromasses were processed for gene expression analysis/alcian blue staining on day 12, whilst others were treated with IL-β media (1% FBS, 1% Ab/Am, 10 ng/ml IL-1B) and CDK8i for 48-hours before processing for alcian blue staining/gene expression analysis on day 14 as previously described.

[5] = test system: primary canine articular chondrocytes; assay: Primary canine articular chondrocytes in chondrogenesis and IL1β OA disease model: gene expression; assay type: cell-based; conditions: 100 nM
Description: as §1, §2

Question: `CN(C)C(=O)Cn1cc(-c2ccc(-c3cncc4ccccc34)cc2)cn1` [BI1347] was tested. Which “mature osteoclast number vs DMSO” value [1] did it give?
Answer: no effect; also recorded: no change

Question: What about the “osteoclast resorptive activity, reduction vs DMSO” value [1] of the same molecule?
Answer: 2.3 fold

Question: What about the “pre-osteoclast number vs DMSO” value [1] of the same molecule?
Answer: no effect; also recorded: no change

Question: What about the “NF-κB gene expression, decrease vs DMSO” value [2] of the same molecule?
Answer: 6 fold

Question: And the “TLR4 gene expression, decrease vs DMSO” value [2]?
Answer: 9 fold

Question: `Cc1n[nH]c2ncc(C(=O)N3CCC[C@H]3c3ccc(Cl)cc3)cc12` [MSC2530818] was tested. Which “decrease in total basal glycolysis (inferred from OCR/ECAR measurements) vs DMSO” value [3] did it give?
Answer: 37%

Question: What about the “extracellular acidification rate (ECAR) vs DMSO” value ([3]; across the time course measured) of the same molecule?
Answer: lower than DMSO control

Question: What about the “total basal oxygen consumption rate (OCR) vs DMSO” value ([3]; p=0.5085) of the same molecule?
Answer: no significant difference

Question: And the “ADAMTS5 gene expression, reduction vs DMSO” value ([4]; OA disease model (+IL1β))?
Answer: 2.7 fold

Question: What about the “CNMD gene expression, increase vs DMSO” value ([4]; OA disease model (+IL1β)) of the same molecule?
Answer: 70 fold

Question: What about the “COL2A1 gene expression, increase vs DMSO” value ([4]; OA disease model (+IL1β)) of the same molecule?
Answer: 11 fold

Question: And the “SMOC2 gene expression, increase vs DMSO” value ([4]; OA disease model (+IL1β))?
Answer: 3 fold

Question: And the “ACAN gene expression, increase vs DMSO” value ([4]; OA disease model (+IL1β), ns)?
Answer: 1.8 fold

Question: And the “MATN3 gene expression vs DMSO” value ([4]; OA disease model (+IL1β), ns)?
Answer: 2 fold

Question: What about the “TIMP4 gene expression, increase vs DMSO” value ([4]; OA disease model (+IL1β), ns) of the same molecule?
Answer: 1.14 fold

Question: What about the “CNMD gene expression, increase vs DMSO” value ([4]; chondrogenic (−IL1β)) of the same molecule?
Answer: 41 fold

Question: And the “SMOC2 gene expression, increase vs DMSO” value ([4]; chondrogenic (−IL1β))?
Answer: 2.3 fold

Question: What about the “TIMP4 gene expression vs DMSO” value ([4]; chondrogenic (−IL1β)) of the same molecule?
Answer: no change

Question: And the “ACAN gene expression, increase vs DMSO” value ([4]; chondrogenic (−IL1β), ns)?
Answer: 2 fold

Question: And the “COL2A1 gene expression, decrease vs DMSO” value ([4]; chondrogenic (−IL1β), ns)?
Answer: 1.25 fold

Question: And the “MATN3 gene expression vs DMSO” value ([4]; chondrogenic (−IL1β), ns)?
Answer: 2 fold

Question: And the “ACAN gene expression, increase vs DMSO” value ([5]; OA disease model (+IL1β), N=1)?
Answer: 3 fold

Question: And the “CNMD gene expression, increase vs DMSO” value ([5]; OA disease model (+IL1β), N=1)?
Answer: 6 fold

Question: What about the “MATN3 gene expression, increase vs DMSO” value ([5]; OA disease model (+IL1β), N=1) of the same molecule?
Answer: 6 fold

Question: And the “SMOC2 gene expression, increase vs DMSO” value ([5]; OA disease model (+IL1β), N=1)?
Answer: 2 fold

Question: What about the “COL2A1 gene expression, increase vs DMSO” value ([5]; OA disease model (+IL1β), ns) of the same molecule?
Answer: 13 fold

Question: What about the “TIMP4 gene expression, increase vs DMSO” value ([5]; OA disease model (+IL1β), ns) of the same molecule?
Answer: 1.1 fold

Question: And the “ACAN gene expression, increase vs DMSO” value ([5]; chondrogenic (−IL1β), N=1)?
Answer: 2 fold

Question: What about the “CNMD gene expression, increase vs DMSO” value ([5]; chondrogenic (−IL1β), N=1) of the same molecule?
Answer: 7 fold

Question: And the “COL2A1 gene expression, increase vs DMSO” value ([5]; chondrogenic (−IL1β), N=1)?
Answer: 5 fold

Question: And the “MATN3 gene expression, increase vs DMSO” value ([5]; chondrogenic (−IL1β), N=1)?
Answer: 2 fold

Question: What about the “SMOC2 gene expression, increase vs DMSO” value ([5]; chondrogenic (−IL1β), N=1) of the same molecule?
Answer: 2 fold

Question: And the “TIMP4 gene expression, increase vs DMSO” value ([5]; chondrogenic (−IL1β), N=1)?
Answer: 4 fold

Question: And the “ADAMTS5 gene expression, reduction vs DMSO” value ([5]; disease model (+IL1β), ns)?
Answer: 1.4 fold

— patent US20250312320A1, “METHOD AND TREATMENT FOR OSTEOARTHRITIS AND DISEASES OF CHONDROCYTE HYPERTROPHY” (The Royal Veterinary College, priority 2022, published 2025)
